How the values were obtained:
[1] = target: T1, L-type calcium channel (LTCC) (Rattus norvegicus, UniProt P22002); assay: FLIPR calcium mobilization (and/or electrophysiological) assay for L-type calcium channel; type: cell-based; conditions: calcium mobilization and/or electrophysiological in vitro assay; differentiated A7r5 cells, 90 mM KCl
T1 construct: differentiated A7r5 cells were trypsinized, then seeded on tissue culture treated 96-well clear-bottom black plates; endogenous in cells; host or cells: differentiated A7r5 cells (ATCC)
Method: A7r5 (ATCC) cells were maintained and routinely cultured in A7r5 growth medium consisting of Dulbecco's Modified Eagles Medium containing 10% FBS, 100 U/mL penicillin, 100 μg/mL streptomycin, 4 mM L-glutamine, and 0.15% sodium bicarbonate. 80-90% confluent flasks of cells were differentiated using the following differentiation medium: A7r5 Growth Medium plus 1 mM dibutyryl cyclic AMP (Sigma). Cells were differentiated for 8 days by replacing differentiation medium every 2-3 days.
One day prior to performing this assay, differentiated A7r5 cells were trypsinized, then seeded on tissue culture treated 96-well clear-bottom black plates (Becton Dickinson, Franklin Lakes, N.J.) at a dilution of 1:1 from a confluent T150 cm^2 flask. On the day of the assay, the plates were washed with A7r5 wash buffer (127 mM NaCl, 2 mM MgCl2, 700 μM NaH2PO4, 5 mM CaCl2, 5 mM NaHCO3, 8 mM HEPES, 10 mM glucose, pH 7.4), then loaded with 0.1 mL of A7r5 wash buffer containing Fluo-4 (3 μM final concentration, Molecular Probes, Eugene, Oreg.). After 1 hour, the cells were washed with 0.1 mL A7r5 wash buffer and resuspended in 0.05 mL A7r5 assay buffer that was composed of A7r5 wash buffer plus 50 μM valinomycin (Sigma). Plates were then transferred to a FLIPR^96 for assay. The FLIPR measured basal Fluo-4 fluorescence for 15 seconds, then added 0.05 mL of each compound tested diluted in A7r5 assay buffer at final concentrations ranging from about 846 pM to about 17 μM. Fluo-4 fluorescence was then measured for 5 minutes. 0.1 mL KCl agonist dissolved in A7r5 assay buffer was then added to the cells to produce a final concentration of 90 mM KCl, and fluorescence was measured for another 45 seconds. Data were collected over the entire time course and analyzed using Excel, Graph Pad Prism, or Activity Base software.

[2] = target: T2, N-type calcium channel (NTCC) (Homo sapiens, UniProt Q00975); assay: FLIPR calcium mobilization (and/or electrophysiological) assay for N-type calcium channel; type: cell-based; conditions: calcium mobilization and/or electrophysiological in vitro assay; differentiated IMR32 cells, 90 mM KCl, 5 μM nitrendipine
T2 construct: endogenous in cells; host or cells: differentiated IMR32 cells (ATCC)
T2 sequence (Q00975 whole entry): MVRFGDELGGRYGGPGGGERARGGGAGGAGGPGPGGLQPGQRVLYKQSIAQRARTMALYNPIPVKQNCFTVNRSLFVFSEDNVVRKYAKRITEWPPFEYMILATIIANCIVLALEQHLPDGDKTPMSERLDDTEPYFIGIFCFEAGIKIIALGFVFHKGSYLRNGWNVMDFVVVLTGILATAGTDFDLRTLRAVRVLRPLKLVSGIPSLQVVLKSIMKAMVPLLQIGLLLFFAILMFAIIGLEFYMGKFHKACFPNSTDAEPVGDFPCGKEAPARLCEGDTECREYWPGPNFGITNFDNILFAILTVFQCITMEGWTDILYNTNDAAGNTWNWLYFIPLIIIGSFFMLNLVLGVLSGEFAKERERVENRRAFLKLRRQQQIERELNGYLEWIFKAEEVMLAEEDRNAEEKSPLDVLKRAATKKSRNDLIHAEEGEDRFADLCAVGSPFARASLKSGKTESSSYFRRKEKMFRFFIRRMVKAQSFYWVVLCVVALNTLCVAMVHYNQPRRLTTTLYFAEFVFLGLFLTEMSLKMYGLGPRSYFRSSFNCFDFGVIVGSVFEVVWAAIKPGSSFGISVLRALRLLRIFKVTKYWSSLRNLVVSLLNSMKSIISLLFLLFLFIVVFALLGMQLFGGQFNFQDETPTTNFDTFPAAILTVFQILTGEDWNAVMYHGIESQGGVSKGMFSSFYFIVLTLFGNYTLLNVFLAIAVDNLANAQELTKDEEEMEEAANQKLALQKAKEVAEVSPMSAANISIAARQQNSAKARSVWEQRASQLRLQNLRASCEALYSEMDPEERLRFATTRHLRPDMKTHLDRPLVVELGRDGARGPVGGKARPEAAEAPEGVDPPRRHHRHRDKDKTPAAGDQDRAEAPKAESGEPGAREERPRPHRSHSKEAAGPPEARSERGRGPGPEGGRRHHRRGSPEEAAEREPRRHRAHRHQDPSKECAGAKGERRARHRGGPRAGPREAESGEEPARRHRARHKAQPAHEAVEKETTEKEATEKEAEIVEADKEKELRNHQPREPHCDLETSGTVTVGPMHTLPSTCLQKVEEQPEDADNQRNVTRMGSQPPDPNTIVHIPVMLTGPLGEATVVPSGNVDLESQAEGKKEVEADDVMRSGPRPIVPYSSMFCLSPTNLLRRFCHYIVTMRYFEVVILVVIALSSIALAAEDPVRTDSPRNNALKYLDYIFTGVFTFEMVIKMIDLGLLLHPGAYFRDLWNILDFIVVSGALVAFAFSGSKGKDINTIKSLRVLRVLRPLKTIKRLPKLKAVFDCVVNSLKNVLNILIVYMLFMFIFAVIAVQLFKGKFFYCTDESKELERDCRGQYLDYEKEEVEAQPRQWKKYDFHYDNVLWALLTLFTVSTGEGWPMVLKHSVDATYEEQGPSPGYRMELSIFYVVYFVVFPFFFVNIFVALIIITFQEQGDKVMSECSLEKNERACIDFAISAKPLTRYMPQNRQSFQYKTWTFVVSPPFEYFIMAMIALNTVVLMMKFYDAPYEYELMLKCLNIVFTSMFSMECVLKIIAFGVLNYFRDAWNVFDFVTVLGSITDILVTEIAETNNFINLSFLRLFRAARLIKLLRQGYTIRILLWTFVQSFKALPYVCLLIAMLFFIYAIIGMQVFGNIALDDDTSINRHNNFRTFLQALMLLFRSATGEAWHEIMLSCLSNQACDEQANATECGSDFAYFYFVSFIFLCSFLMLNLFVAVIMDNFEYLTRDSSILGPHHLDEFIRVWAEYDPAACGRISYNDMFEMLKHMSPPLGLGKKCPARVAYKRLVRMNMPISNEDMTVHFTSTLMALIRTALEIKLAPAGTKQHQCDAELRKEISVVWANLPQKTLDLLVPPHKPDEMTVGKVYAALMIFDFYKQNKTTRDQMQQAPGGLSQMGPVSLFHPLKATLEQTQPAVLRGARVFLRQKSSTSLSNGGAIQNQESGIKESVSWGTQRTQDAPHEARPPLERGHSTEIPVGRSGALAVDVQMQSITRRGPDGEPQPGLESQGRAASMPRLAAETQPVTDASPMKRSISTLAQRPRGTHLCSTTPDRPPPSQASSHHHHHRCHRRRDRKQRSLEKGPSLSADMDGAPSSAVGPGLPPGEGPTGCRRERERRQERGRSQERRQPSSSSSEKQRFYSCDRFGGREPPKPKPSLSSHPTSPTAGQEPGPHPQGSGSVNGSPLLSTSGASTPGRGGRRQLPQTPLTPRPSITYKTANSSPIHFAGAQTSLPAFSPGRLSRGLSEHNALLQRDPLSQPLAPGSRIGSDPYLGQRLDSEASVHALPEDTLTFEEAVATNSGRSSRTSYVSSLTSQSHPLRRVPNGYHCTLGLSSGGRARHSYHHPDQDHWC
T2 sequence (P54284 whole entry partner): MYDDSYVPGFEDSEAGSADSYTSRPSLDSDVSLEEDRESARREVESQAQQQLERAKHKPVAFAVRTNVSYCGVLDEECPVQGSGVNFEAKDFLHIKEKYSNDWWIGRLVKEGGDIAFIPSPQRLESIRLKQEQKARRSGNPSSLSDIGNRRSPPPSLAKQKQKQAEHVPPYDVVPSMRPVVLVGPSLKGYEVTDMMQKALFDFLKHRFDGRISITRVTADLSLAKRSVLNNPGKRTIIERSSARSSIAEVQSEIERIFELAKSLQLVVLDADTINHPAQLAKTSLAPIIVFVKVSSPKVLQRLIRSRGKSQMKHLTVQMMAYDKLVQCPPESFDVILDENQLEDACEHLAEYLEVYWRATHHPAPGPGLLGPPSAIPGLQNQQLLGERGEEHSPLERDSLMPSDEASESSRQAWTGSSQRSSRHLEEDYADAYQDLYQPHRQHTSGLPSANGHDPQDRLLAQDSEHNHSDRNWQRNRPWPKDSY
T2 sequence (P54289 25-956 partner limits assumed): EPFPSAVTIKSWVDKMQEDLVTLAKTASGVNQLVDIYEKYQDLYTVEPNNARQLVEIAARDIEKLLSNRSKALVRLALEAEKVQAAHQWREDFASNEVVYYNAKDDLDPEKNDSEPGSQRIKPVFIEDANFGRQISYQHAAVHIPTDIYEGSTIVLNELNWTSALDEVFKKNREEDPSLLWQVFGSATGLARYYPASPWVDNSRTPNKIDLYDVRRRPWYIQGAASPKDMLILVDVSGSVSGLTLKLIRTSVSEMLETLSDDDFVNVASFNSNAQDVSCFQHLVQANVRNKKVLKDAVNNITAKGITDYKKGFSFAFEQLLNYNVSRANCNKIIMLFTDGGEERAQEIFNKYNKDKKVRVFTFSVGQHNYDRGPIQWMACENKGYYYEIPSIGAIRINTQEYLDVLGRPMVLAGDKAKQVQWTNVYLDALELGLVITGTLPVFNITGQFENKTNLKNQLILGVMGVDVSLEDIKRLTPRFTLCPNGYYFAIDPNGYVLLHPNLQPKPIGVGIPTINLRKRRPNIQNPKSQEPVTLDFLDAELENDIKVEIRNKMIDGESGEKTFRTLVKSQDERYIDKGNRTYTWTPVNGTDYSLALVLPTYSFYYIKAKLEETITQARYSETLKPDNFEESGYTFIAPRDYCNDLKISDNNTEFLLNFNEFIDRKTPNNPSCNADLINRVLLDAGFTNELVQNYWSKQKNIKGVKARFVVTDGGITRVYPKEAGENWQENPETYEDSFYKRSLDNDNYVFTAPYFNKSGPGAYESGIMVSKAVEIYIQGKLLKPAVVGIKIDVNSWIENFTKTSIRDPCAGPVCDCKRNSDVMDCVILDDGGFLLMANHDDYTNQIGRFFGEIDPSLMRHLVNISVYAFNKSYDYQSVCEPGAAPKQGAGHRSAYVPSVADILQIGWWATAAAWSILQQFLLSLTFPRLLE
T2 sequence (P54289 957-1103 partner limits assumed): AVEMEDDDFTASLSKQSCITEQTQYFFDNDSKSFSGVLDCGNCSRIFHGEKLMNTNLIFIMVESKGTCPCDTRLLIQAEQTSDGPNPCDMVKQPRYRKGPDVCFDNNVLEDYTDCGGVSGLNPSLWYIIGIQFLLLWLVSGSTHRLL
Method: Unless noted otherwise, cell culture reagents were purchased from Life Technologies of Rockville, Md. IMR32 cells (American Type Culture Collection, ATCC, Manassas, Va.) were routinely cultured in growth medium consisting of minimum essential medium containing 10% fetal bovine serum (FBS, Hyclone, Logan, Utah), 100 U/mL penicillin, 100 μg/mL streptomycin, 2 mM L-glutamine, 1 mM sodium pyruvate, and 1×MEM non-essential amino acids. 80-90% confluent flasks of cells were differentiated using the following differentiation medium: Growth medium plus 1 mM dibutyryl cyclic AMP (Sigma, St. Louis, Mo.), and 2.5 μM bromodeoxyuridine (Sigma). Cells were differentiated for 8 days by replacing differentiation medium every 2-3 days.
One day prior to performing this assay, differentiated IMR32 cells were treated with 1× CellStripper, and seeded on poly-D-lysine-coated 96-well clear-bottom black plates (Becton Dickinson, Franklin Lakes, N.J.) at 200,000 cells/well. On the day of the assay, the cell plates were washed with IMR32 buffer (127 mM NaCl, 1 mM KCl, 2 mM MgCl2, 700 μM NaH2PO4, 5 mM CaCl2, 5 mM NaHCO3, 8 mM HEPES, 10 mM glucose, pH 7.4), then pre-stimulated with KCl and loaded as follows: 0.05 mL of IMR32 buffer, 0.05 mL of each compound tested diluted in IMR32 buffer containing 20 μM nitrendipine (Sigma), and 0.1 mL KCl dissolved in IMR32 buffer, plus Fluo-4 were added (3 μM final concentration, Molecular Probes, Eugene, Oreg.). Final test compound concentrations ranged from about 846 pM to about 17 μM, final nitrendipine concentration was 5 μM, and final KCl concentration was 90 mM. After 1 hour, the cells were washed twice with 0.05 mL of each compound tested in nitrendipine-containing IMR32 buffer (no KCl or Fluo-4), and then replaced with 0.1 mL of each compound tested in nitrendipine-containing IMR32 buffer. Plates were then transferred to a Fluorimetric Imaging Plate Reader (FLIPR^96, Molecular Devices, Inc., Sunnyvale, Calif.) for assay. The FLIPR measured basal Fluo-4 fluorescence for 315 seconds (i.e., 5 minutes and 15 seconds), then added 0.1 mL KCl agonist dissolved in IMR32 buffer and measured fluorescence for another 45 seconds. Final test compound concentrations on the cells after FLIPR read ranged from about 846 pM to about 17 μM, final nitrendipine concentration was 5 μM, and final KCl concentration was 90 mM. Data were collected over the entire time course and analyzed using Excel, Graph Pad Prism (version 3.02, Graph Pad, San Diego, Calif.), or Activity Base (version 5.1, IDBS, Parsippany, N.J.) software.
N-type calcium channel expressing HEK-293 cells were created in two stages. Stage 1 was created as follows. The rat α1b, and β3 cDNA expression constructs (2.5 μg each) were co-transfected into human embryonic kidney (HEK-293) cells by Lipofectamine Plus reagent (Invitrogen), as per manufacturer's instructions. 24 hours later, cells were split in limiting dilution into multiple 96-well plates in selection media containing 20 μg/mL blasticidin and 500 μg/mL geneticin, and incubated for 3 weeks at 37° C., 5% CO2, 95% humidity. Plates containing ≦1 clone per well were cultured until wells positive for single clones were confluent. Individual clones were then arrayed into columns of a destination 96-well plate, and partly split into 6-well plates for culture maintenance. Array plates were washed once with IMR32 buffer and cells loaded for 1 hour with 0.1 mL of IMR32 buffer containing Fluo-4 (3 μM final concentration, Molecular Probes). Then they were washed twice with 0.1 mL of IMR32 buffer, and replaced with 0.1 mL IMR32 buffer. Plates were then transferred to a FLIPR^96 for assay. The FLIPR measured basal Fluo-4 fluorescence for 315 seconds, then added 0.1 mL KCl agonist dissolved in IMR32 buffer and measured fluorescence for another 45 seconds. Final KCl concentration was 90 mM. Data were collected over the entire time course and analyzed using Excel, Graph Pad Prism, or Activity Base software. […]

Row | IC50 [1] | IC50 [2] | SMILES
1 | 1.43 µM | 0.97 µM | O=C(CCC(c1ccc(F)cc1)c1ccc(F)cc1)N1CCC(N(C2CC2)S(=O)(=O)c2cccc(F)c2)CC1 [N-cyclopropyl-N-{1-[4,4-bis(4-fluorophenyl)butanoyl]piperidin-4-yl}-3-fluorobenzenesulfonamide]
2 | 3.24 µM | 1.09 µM | O=C(CCC(c1ccc(F)cc1)c1ccc(F)cc1)N1CCC(N(C2CC2)S(=O)(=O)c2ccccc2)CC1 [N-cyclopropyl-N-{1-[4,4-bis(4-fluorophenyl)butanoyl]piperidin-4-yl}benzenesulfonamide]
3 | 8.6 µM | 0.18 µM | NC(Cc1ccc(F)cc1)C(=O)N1CCC(N(C2CC2)S(=O)(=O)c2cccc(C(F)(F)F)c2)CC1 (stereo not drawn) [N-{1-[2-Amino-3-(4-fluorophenyl)propionyl]piperidin-4-yl}-N-cyclopropyl-3-trifluoromethylbenzenesulfonamide]

Source: US9000174B2, “4-phenylsulfonamidopiperidines as calcium channel blockers” (Purdue Pharma L.P., priority 2004, dated 2015)
